Columns and labels:
[1] = mouse, in vivo, ip, 15 mg/kg
Method: (§6) Test compounds were dissolved either in 20% (w/w) sulfobutylether-β-cyclodextrin (SBECD) pH 3-7 aqueous solution, or 5% DMSO/(30-50%) PEG400/(65-45%) water. Test compound dosing solutions were administered intraperitoneally to Balb/c nude male mice. Blood samples were collected at various time points with EDTA-K2 as anti-coagulant on ice, and centrifuged to obtain plasma samples. The plasma samples were stored at −20° C. until analysis.
(§7) Into 10 μL of test compound plasma samples were added 2 μL DMSO then 200 μL of 5 ng/mL internal standard (VTSD) (Terfenadine) in MeOH/acetonitrile. The mixture was vortexed for 1 minute and centrifuged at 4000 rpm for 15 minutes. Calibration standards were prepared by spiking known amount of test compounds into blank plasma samples. The supernatant solution was diluted 5 times with Acetonitrile/H2O (with 0.1% formic acid, 1:1, v/v), and this is the solution for LC-MS/MS analysis. The limit of quantification (LOQ) was 1 ng/mL.
(§8) Typical HPLC mobile phases were mobile phase of 5 mM NH4OAc (with 0.05% formic acid); and mobile phase B of acetonitrile (with 0.1% formic acid). The HPLC column was Kinetex C18 (30 mm×3.00 mm). Mass spectrometer was tuned for each compound in the Multiple Reaction Monitoring (MRM) scanning mode and in the electrospray ionization mode. The lower limit of quantification was 1-10 ng.
(§9) In this study, K601 (RSL3) was formulated in 5% DMSO/30% PEG 400/65% water at 1.5 mg/mL. The volume of injection via intraperitoneal route was 10 mL/kg for a dose of 15 mg/kg. […] The limit of quantification (LOQ) was 1 ng/mL.
(§10) In this study, the compound was formulated in 20% (w/w) sulfobutylether-β-cyclodextrin (SBECD), pH 5 aqueous solution at 1.5 mg/mL. The volume of injection via intraperitoneal route was 10 mL/kg for a dose of 15 mg/kg. The concentration of test compounds in plasma were analyzed by LC-MS with the method described above. The limit of quantification was 1 ng/mL.
(§11) It was formulated in 5% DMSO/50% PEG400/45% Water pH adjusted to 4 with HCl as an aqueous solution at 1.0 mg/mL. The volume of injection via intraperitoneal route was 15 mL/kg for a dose of 15 mg/kg. The concentration of test compounds in plasma were analyzed by LC-MS with the method described above. The limit of quantification was 1 ng/mL. […] The limit of quantification was 1 ng/mL.
(§12) Compounds 24 and 28 were formulated in 20% (w/w) sulfobutylether-β-cyclodextrin (SBECD) with pH 3 and pH 4, respectively, as an aqueous solution at 1.0 mg/mL. Compound 67 was in 5% DMSO/50% PEG 400/45% water pH 4 (adjusted with 12 N HCl) aqueous solution at 1.0 mg/mL. The injection volume via intraperitoneal route was 10 mL/kg for a dose of 15 mg/kg. The concentration of test compounds in plasma were analyzed by LC-MS with the method described above. The limit of quantification was 1 ng/mL.

Kasumi-1 = assay: Cell viability assay (CellTiter Glo), leukemia cell line Kasumi-1; assay type: cell-based; conditions: Homo sapiens, 96 hours
Method: (§1) Cell viability assay was performed to assess the potency of the compounds in human cancer cell lines KP4 (pancreatic ductal adenocarcinoma), MiaPaCa-2 (pancreatic carcinoma), AsPC-1 (pancreatic adenocarcinoma, ascites), 143B (osteosarcoma), and SJSA-1 (osteosarcoma). Selected compounds were also assayed in a human breast epithelial cell line MCF-10A, a nontumorigenic cell line as a control to assess differential activity. Cells at a density of 500-5,000 cells/well were seeded in 96-well plates and incubated at 37° C. overnight. A series of 9 different concentrations of compound stocks (500×) were created by 3-fold serial dilution in DMSO. These compounds were further diluted in culture media and then added to cells so that the final DMSO concentration was equal to 0.25% or less. After 96 hours of incubation, 50 μL of CellTiter Glo reagent (Promega) was added to each well and luminescence was measured after 10 minutes using EnVision (PerkinElmer). Compounds titrated from top concentration of up to 30 μM. The select compounds were tested initially from 30 μM as the top concentration in duplicates (range of 4.6 nM-30 μM). […] Luminescence from cells treated with DMSO alone was set as Max and % of inhibition was calculated as follows: Inhibition %=(Max-Sample value)/Max*100. Data was analyzed using XL-fit software (ID Business Solutions Ltd.). IC50, relative IC50, or % of top inhibition was calculated.
(§2) A group of selected analogs were further profiled in cell viability assays described above in multiple additional cancer cell lines, including lung cancer, melanoma, hepatocarcinoma, pancreatic cancer, leukemia, lymphoma, ovarian cancer, breast cancer, colon cancer, and sarcoma cell lines. Initial cell seeding numbers were adjusted for each cell line. Typically, 500-5000 cells/well for adherent cells and 5000-10000/well for suspension cells were seeded in 96-well plates.
(§3) The results of the assay in the leukemia cell lines are given in Table 16a for MV-4-1 and Table 16b for HL-60 and Kasumi-1.

H1299 = assay: Cell viability assay (CellTiter Glo), lung cancer cell line H1299; assay type: cell-based; conditions: Homo sapiens, NCI-H1299, 96 hours
Method: as §1, §2

143B = assay: Cell viability assay (CellTiter Glo), osteosarcoma 143B; assay type: cell-based; conditions: Homo sapiens, 96 h, osteosarcoma, 96 hours, CellTiter Glo, read-out: IC50 143B
In short: (§4)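 Cells seeded at 500-5,000/well overnight, then 96 h exposure to 9-point 3-fold dilutions from up to 30 μM (4.6 nM-30 μM), final DMSO ≤0.25%. Viability by CellTiter Glo luminescence; inhibition relative to DMSO-only cells, yielding IC50, relative IC50 or % top inhibition.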

SW480 = assay: Cell viability assay (CellTiter Glo), colon cancer cell line SW480; assay type: cell-based; conditions: Homo sapiens, 96 hours
Method: as §1, §2

in vivo = conditions: male, Balb/c nude, mouse, ip, 15 mg/kg, Calculated Concentration
Method: as §6, §7, §8, §9, §10, §11, §12

HL-60 = assay: Cell viability assay (CellTiter Glo), leukemia cell line HL-60; assay type: cell-based; conditions: Homo sapiens, 96 hours
Method: as §1, §2, §3

MiaPaCa-2 = assay: Cell viability assay (CellTiter Glo), pancreatic carcinoma MiaPaCa-2; assay type: cell-based; conditions: Homo sapiens, MIA PaCa-2; pancreatic carcinoma, 96 hours, CellTiter Glo; read-out: IC50 MiaPaCa-2
In short: (§5)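 MiaPaCa-2 and AsPC-1 cells were seeded overnight at 37 °C and exposed for 96 h to 9-point, 3-fold dilutions from up to 30 μM (final DMSO ≤0.25%). CellTiter Glo luminescence was read, and inhibition was calculated relative to DMSO-only cells. IC50, relative IC50 or % top inhibition was derived.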

AsPC-1 = assay: Cell viability assay (CellTiter Glo), pancreatic adenocarcinoma AsPC-1; assay type: cell-based; conditions: Homo sapiens, ASPC1; pancreatic adenocarcinoma, ascites, 96 hours, CellTiter Glo; read-out: IC50 AsPC-1
In short: as §5

MCF-10A = assay: Cell viability assay (CellTiter Glo), non-tumorigenic breast epithelial cell line MCF-10A; assay type: cell-based; conditions: Homo sapiens, 96 hours
In short: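 Non-tumorigenic breast epithelial MCF-10A line, exposed for 96 hours to compound (top concentration up to 30 μM, 3-fold steps, duplicates, final DMSO 0.25% or less). ATP luminescence (CellTiter Glo) normalised to DMSO controls yields IC50, relative IC50 or % top inhibition; paclitaxel served as cytotoxic control.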

SK-OV-3 = assay: Cell viability assay (CellTiter Glo), ovarian cancer cell line SK-OV-3; assay type: cell-based; conditions: Homo sapiens, 96 hours
Method: as §1, §2

H2228 = assay: Cell viability assay (CellTiter Glo), lung cancer cell line H2228; assay type: cell-based; conditions: Homo sapiens, NCI-H2228; lung cancer cell line, 96 hours, CellTiter Glo; read-out: IC50 H2228
Method: as §1, §2

HT29 = assay: Cell viability assay (CellTiter Glo), colon cancer cell line HT29; assay type: cell-based; conditions: Homo sapiens, HT-29, 96 hours
Method: as §1, §2

HT-1080 luc2 = assay: Cell viability assay (CellTiter Glo), fibrosarcoma HT-1080 luc2; assay type: cell-based; conditions: Homo sapiens, fibrosarcoma expressing a luciferase gene, 96 hours, CellTiter Glo, read-out: IC50 HT-1080 luc2
Method: as §1, §2
The results of the assay in sarcoma cell lines are given in Table 21a for HT-1080 luc2 (fibrosarcoma expressing a luciferase gene), Table 21b for 143B (osteosarcoma), and Table 21c for SJSA-1 (osteosarcoma).

SJSA-1 = assay: Cell viability assay (CellTiter Glo), osteosarcoma SJSA-1; assay type: cell-based; conditions: Homo sapiens, 96 hours
In short: as §4

PANC1 = assay: Cell viability assay (CellTiter Glo), pancreatic cell line PANC1; assay type: cell-based; conditions: Homo sapiens, PANC-1, 96 hours
Method: as §1, §2
The results of the assay in the pancreatic cell lines are given in Table 15a for PANC1, Table 15b for MiaPaCa-2, and Table 15c for AsPC-1.

Raji = assay: Cell viability assay (CellTiter Glo), lymphoma cell line Raji; assay type: cell-based; conditions: Homo sapiens, 96 hours
Method: as §1, §2

MV-4-1 = assay: Cell viability assay (CellTiter Glo), leukemia cell line MV-4-1; assay type: cell-based; conditions: 96 hours
Method: as §1, §2, §3

Huh7 = assay: Cell viability assay (CellTiter Glo), hepatocellular carcinoma Huh7; assay type: cell-based; conditions: Homo sapiens, Huh-7, 96 hours
Method: as §1, §2

[2] = Pharmacokinetic (PK) studies via intravenous infusion, Sprague-Dawley rat; assay type: in vivo; conditions: male, plasma, one rat
Method: Test compound dosing solutions were administered via intravenous infusion to Sprague-Dawley male rat.
Into 50 μL of test compound plasma samples were added 5 μL DMSO then 200 μL of 25 ng/mL internal standard (ITSD) (Verapamil) in MeOH/acetonitrile (1:1, v/v). […] The limit of quantification (LOQ) was 1 ng/mL.
The lower limit of quantification was 1-10 ng. A typical HPLC gradient table is described below: […]
The PK profiles of compound 24 and compound 28 are shown below. […] The volume of injection via intravenous infusion route was adjusted for a dose of 2, 4 and 8 mg/kg. […] The limit of quantification was 1 ng/mL.

MDA-MB-435S = assay: Cell viability assay (CellTiter Glo), melanoma cell line MDA-MB-435S; assay type: cell-based; conditions: Homo sapiens, 96 hours
Method: as §1, §2

HCC1954 = assay: Cell viability assay (CellTiter Glo), breast cancer cell line HCC1954; assay type: cell-based; conditions: Homo sapiens, 96 hours
Method: as §1, §2

REC-1 = assay: Cell viability assay (CellTiter Glo), lymphoma cell line REC-1; assay type: cell-based; conditions: Homo sapiens, Rec1, 96 hours
Method: as §1, §2

- exposure (Cmax, AUC) compared with K601 (RSL3) [1]: higher exposure
- IC50 (Kasumi-1): 88 nM
- IC50 (H1299): 3 nM
- IC50 (143B): 4 nM
- IC50 (SW480): 167 nM
- concentration at 0.5 h (in vivo): 332 ng/mL
- concentration at 1 h (in vivo): 355 ng/mL
- concentration at 2 h (in vivo): 50.5 ng/mL
- concentration at 4 h (in vivo): 3.41 ng/mL
- concentration at 0.5 h (in vivo; Mean): 464 ng/mL
- concentration at 1 h (in vivo; Mean): 317 ng/mL
- concentration at 2 h (in vivo; Mean): 44.5 ng/mL
- concentration at 4 h (in vivo; Mean): 4.56 ng/mL
- IC50 (HL-60): 16 nM
- IC50 (MiaPaCa-2): 2 nM
- IC50 (AsPC-1): 19 nM
- IC50 (SK-OV-3): 17 nM
- IC50 (H2228): 18 nM
- IC50 (HT29): 87 nM
- IC50 (HT-1080 luc2): 15 nM
- IC50 (SJSA-1): 13 nM
- IC50 (PANC1): 19 nM
- IC50 (Raji): 9 nM
- IC50 (MV-4-1): 21 nM
- IC50 (Huh7): 22 nM
- concentration at 1.0167 hr ([2]; 1 hour-IV infusion 2 mg/kg): 51.7 ng/mL
- concentration at 1.0833 hr ([2]; 1 hour-IV infusion 2 mg/kg): 14.1 ng/mL
- concentration at 1.25 hr ([2]; 1 hour-IV infusion 2 mg/kg): 4.95 ng/mL
- concentration at 1.5 h ([2]; 1 hour-IV infusion 2 mg/kg): 2.18 ng/mL
- concentration at 1.0167 hr ([2]; 1 hour-IV infusion 4 mg/kg): 159 ng/mL
- concentration at 1.0833 hr ([2]; 1 hour-IV infusion 4 mg/kg): 36.4 ng/mL
- concentration at 1.25 hr ([2]; 1 hour-IV infusion 4 mg/kg): 13.8 ng/mL
- concentration at 1.5 h ([2]; 1 hour-IV infusion 4 mg/kg): 5.07 ng/mL
- concentration at 2 h ([2]; 1 hour-IV infusion 4 mg/kg): 2.62 ng/mL
- concentration at 1.0167 hr ([2]; 1 hour-IV infusion 8 mg/kg): 259 ng/mL
- concentration at 1.0833 hr ([2]; 1 hour-IV infusion 8 mg/kg): 97.5 ng/mL
- concentration at 1.25 hr ([2]; 1 hour-IV infusion 8 mg/kg): 34 ng/mL
- concentration at 1.5 h ([2]; 1 hour-IV infusion 8 mg/kg): 17.3 ng/mL
- concentration at 2 h ([2]; 1 hour-IV infusion 8 mg/kg): 6.52 ng/mL
- concentration at 3 h ([2]; 1 hour-IV infusion 8 mg/kg, 3 hr): 2.92 ng/mL
- IC50 (MDA-MB-435S): 4 nM
- IC50 (HCC1954): 39 nM
- IC50 (REC-1): 33 nM
SMILES: COC(=O)[C@H]1Cc2c([nH]c3ccccc23)[C@H](c2ccc(S(=O)(=O)N[C@]34C[C@H]5C[C@H](C[C@H](C5)C3)C4)cc2)N1C(=O)CCl [Example 24]
- IC50 (MCF-10A): 410 nM

Reference: patent publication US11098040B2, “Compounds and methods of use” (Ferro Therapeutics, Inc., priority 2018, dated 2021)
